Assay results: patent publication US20160158149A1, “Inhalable Pharmaceutical Compositions and the Inhaler Devices Containing Them” (priority 2013, published 2016)

Tests used:
[1] = Fine particle dose (FPD) of the inhaler assembly, invention versus conventional; format: physicochemical; conditions: aerodynamic diameter 1 to 5 μm, assembly of the invention relative to conventional disk-shaped inhaler
Description: (§1) Pharmacokinetic data of an assembly for an inhaler according to the different embodiments of the invention described above together with the different variants of the pharmaceutical composition of the invention including salmeterol xinafoate and fluticasone proprionate were determined in comparison to the pharmacokinetic data of a conventional assembly including a disk-shaped inhaler housing a mixture of salmeterol xinafoate and fluticasone proprionate. Such a disk shaped inhaler is for example described in the PCT application WO 2001/97886 A1.
(§2) In particular, the fine particle dose (FPD), which is the amount of particles with an aerodynamic diameter of between 1 to 5 μm, the area under the curve (AUC), corresponds to the integral of the plasma concentration of an administered pharmaceutical drug substance versus an interval of definite time and Cmax, which is the maximum concentration measured for a pharmaceutical in the blood of test persons after it was administrated and prior to the administration of a second dose, were determined.

[2] = Pharmacokinetic data (AUC, Cmax) after inhalation, invention versus conventional assembly; format: in vivo, test persons
Description: as §1, §2

CCC(=O)O[C@]1(C(=O)SCF)[C@H](C)C[C@H]2[C@@H]3C[C@H](F)C4=CC(=O)C=C[C@]4(C)[C@@]3(F)[C@@H](O)C[C@@]21C [Fluticasone, fluticasone proprionate]
Ratio invention/conventional FPD 1-5 μm [1]: 0.93 | Ratio invention/conventional Point estimate Cmax ([2]; maximum concentration in blood of test persons, assembly of the invention relative to conventional disk-shaped inhaler): 1.66 | Ratio invention/conventional Point estimate AUC ([2]; plasma concentration versus time, assembly of the invention relative to conventional disk-shaped inhaler): 1.42

OCc1cc(C(O)CNCCCCCCOCCCCc2ccccc2)ccc1O (stereo not drawn) [Salmeterol, salmeterol xinafoate]
Ratio invention/conventional FPD 1-5 μm [1]: 0.90 | Ratio invention/conventional Point estimate AUC ([2]; human, in vivo): 1.25 | Ratio invention/conventional Point estimate Cmax ([2]; human, in vivo, inhaled or intranasal): 1.69
